Data taken from patent US11820754B2, “Polymorphs of an SSAO inhibitor” (Eli Lilly and Company, priority 2020, dated 2023).

Assay: Competitive slurry study (Form I vs Form II, XRPD of wet cake)
Format: physicochemical
Conditions: for XRPD Pattern (wet cake): 800 rpm
Experimental: XRPD analyses were performed with techniques and equipments known in the art with Cu K-alpha radiation.
Competitive slurry experiments were performed at 25° C. and 50° C. Saturated solutions of Form I in ACN and acetone at 25° C. and 50° C. were prepared. About 15 mg of Form I and Form II were weighted into the solutions respectively, and the suspensions were slurried for 1 or 3 days at 800 rpm.

Conversion of form mixture in slurry, as determined by XRPD (25 °C and 50 °C, ACN and acetone, slurried 1 or 3 days) | XRPD Pattern (wet cake) (ACN, 25 °C, slurry time 1 day) | XRPD Pattern (wet cake) (ACN, 25 °C, slurry time 3 days) | XRPD Pattern (wet cake) (ACN, 50 °C, slurry time 1 day) | XRPD Pattern (wet cake) (Acetone, 25 °C, slurry time 1 day) | XRPD Pattern (wet cake) (Acetone, 50 °C, slurry time 1 day) | XRPD Pattern (wet cake) (Acetone, 50 °C, slurry time 3 days) | Relative thermodynamic stability of polymorphic forms (versus Form I, at a temperature of 50 °C or below) | SMILES
completely converted to Form II | Form I + Form II | Form II | Form II | Form II | Form I + Form II | Form II | – | COC1CCN(c2ncc(OC/C(=C/F)CN)cn2)CC1.Cc1ccc(S(=O)(=O)O)cc1 [Form I + Form II]
– | – | – | – | – | – | – | more thermodynamically stable | COC1CCN(c2ncc(OC/C(=C/F)CN)cn2)CC1.Cc1ccc(S(=O)(=O)O)cc1 [Form II, (2E)-3-fluoro-2-({[2-(4-methoxypiperidin-1-yl)pyrimidin-5-yl]oxy}methyl)prop-2-en-1-aminium 4-methylbenzenesulfonate]
